# Test results reported in the SangsterLogP compilation.
# Assay: not given
# Conditions: pH 3.5
row,logD,SMILES
1,3.54,COc1cccc(NC(=S)c2ccc(O)cc2O)c1

# Assay: method code SF-AS, from DOI: 10.1002/qsar.200430865
# Conditions: pH 3.5
row,SMILES,logD
1,Oc1ccc(C(=S)Nc2cc(Cl)c(Cl)cc2Cl)c(O)c1,4.92
2,CCOc1ccc(NC(=S)c2ccc(O)cc2O)cc1,3.49
3,Oc1ccc(C(=S)Nc2ccc(F)cc2F)c(O)c1,3.54
4,Oc1ccc(C(=S)Nc2cccc(Cl)c2Cl)c(O)c1,4.02
5,Oc1ccc(C(=S)Nc2ccc(Cl)cc2Cl)c(O)c1,4.26
6,Oc1ccc(C(=S)Nc2cc(Cl)ccc2O)c(O)c1,3.58
7,CCOc1ccccc1NC(=S)c1ccc(O)cc1O,3.8
8,N#Cc1ccc(NC(=S)c2ccc(O)cc2O)cc1,2.41

# Next, values leading:
row,logD,SMILES
1,4.43,Oc1ccc(C(=S)Nc2ccc(Cl)c(F)c2)c(O)c1
2,2.92,COC(=O)c1ccccc1NC(=S)c1ccc(O)cc1O
3,3.9,Oc1ccc(C(=S)Nc2cccc(Cl)c2)c(O)c1
4,4.26,Oc1ccc(C(=S)Nc2cccc(C(F)(F)F)c2)c(O)c1
5,2.36,CC(=O)c1cccc(NC(=S)c2ccc(O)cc2O)c1
6,3.36,Oc1ccc(C(=S)Nc2ccccc2F)c(O)c1
7,3.46,Oc1ccc(C(=S)Nc2cccc(Br)c2)c(O)c1
8,4.02,Oc1ccc(C(=S)Nc2ccc(Br)cc2)c(O)c1
9,3.41,Oc1ccc(C(=S)Nc2cccc(F)c2)c(O)c1
